Measured values: US5112808A, “Alkylated hormone-releasing peptides and method of treatig mammals therewith” (American Cyanamid Company, priority 1988, dated 1992)
Where no end group is shown, it is not given here.

Tests used:
growth hormone release = experiment: Peptide effects on growth hormone release in the pentobarbital-anesthetized rat (plasma GH by RIA); type: in vivo
Description: In this evaluation, the procedures described by W. A. Murphy et al., Endocrinology 109: 491-495 (1980), were employed.
In growth hormone (GH) experiments, male rats (Charles Rivers) were anesthetized with NEMBUTAL® (6 mg per 100 g body weight) which also served to maintain stimulated plasma GH levels. Exactly 30 minutes after the rats were anesthetized, 0.5 mL of saline or the test peptide in saline was administered as a SC bolus. A 1 mL blood sample was drawn from the jugular vein 15 minutes after the injection of the peptide in saline or at the indicated times in the time course assay (p26). GH levels were determined using NIADDKD rat GH RIA components.

plasma growth hormone = experiment: Evaluation of peptides in vivo in sheep: plasma GH levels in lambs injected intravenously at 100 ng/kg; settings: for Plasma GH Peak / Plasma GH Post-inj Mean: 100 ng/kg IV; for Plasma GH Peak: control 12.2; for Plasma GH Post-inj Mean: two hours after treatment, means of 8 samples/animal from 8 animals, control 8.7; for Plasma GH Pre-inj Mean: before IV injection of 100 ng/kg, means of 5 samples/animal from 8 animals, control 8.4
Description: The purpose of this experiment is to compare the GH releasing activities of several GRF analogs selected for expected high potency and the lack of either a terminal amide or a D-amino acid. The analogs to be compared in wether lambs at 100 ng/kg (IV) are tri-isopropyl-GRF(1-29)-NH2, tri-isopropyl-GRF(1-29)-OH, tri-isopropyl-GRF(1-40)OH, D-ala^2, arg^12,21 -GRF (1-29)-OH, D-ala^2, arg^12,21 -GRF(1-29)-NH2, GRF(1-40)-OH and GRF(1-29)-NH2
A balanced 8×8 Latin square design will be used to test the following 8 treatments:
Sheep are maintained in individual metabolism cages at all times. Each sheep has previously received an indwelling jugular cannula which is flushed daily with heparinized (400-800 IU/ml) sterile saline to help maintain […].
All compounds are solubilized at 5 ug/ml in sterile saline containing 1% Tween 80 and injected intravenously at 100 ng/kg. Control lambs receive equal volumes of the vehicle only. The drugs are prepared each day just prior to injection to minimize sticking to the vials.
Blood is collected in heparinized tubes at 15 minute intervals for one hour prior to and for two hours after the treatments are administered. Plasma samples are removed by centrifugation and frozen.
Blood samples are taken from each animal at 15 minute intervals for 3 hours each day during the 8 day trial period. The samples are analyzed for plasma growth hormone (ng/ml). Data obtained are reported below as near values obtained for each treatment.

Question: Which “PLASMA GH” value (growth hormone release; dose 30 ug/100 g BW SC, blood 15 min after injection, saline control 243 ± 25) does the source give for CC[C@H](C)[C@H](NC(=O)[C@H](C)NC(=O)[C@H](CC(=O)O)NC(=O)[C@H](C)NC(=O)[C@H](Cc1ccc(O)cc1)NC)C(=O)N[C@@H](Cc1ccccc1)C(=O)N[C@H](C(=O)N[C@@H](CC(N)=O)C(=O)N[C@@H](CO)C(=O)N[C@@H](Cc1ccc(O)cc1)C(=O)N[C@@H](CCCNC(=N)N)C(=O)N[C@@H](CCCCN)C(=O)N[C@H](C(=O)N[C@@H](CC(C)C)C(=O)NCC(=O)N[C@@H](CCC(N)=O)C(=O)N[C@@H](CC(C)C)C(=O)N[C@@H](CO)C(=O)N[C@@H](C)C(=O)N[C@@H](CCCNC(=N)N)C(=O)N[C@@H](CCCCN)C(=O)N[C@@H](CC(C)C)C(=O)N[C@@H](CC(C)C)C(=O)N[C@@H](CCC(N)=O)C(=O)N[C@@H](CC(=O)O)C(=O)N[C@H](C(=O)N[C@@H](CCSC)C(=O)N[C@@H](CO)C(=O)N[C@@H](CCCNC(=N)N)C(N)=O)[C@@H](C)CC)C(C)C)[C@@H](C)O [N^α MeTry^1, [N α-MeTyr^1]hpGRF(1-29)-NH2, reference compound] here?
Answer: 1843 ± 196 ng/mL

Question: What about the “PLASMA GH” value (growth hormone release; dose 75 ug/100 g BW SC, blood 15 min after injection, saline control 243 ± 25) of the same molecule?
Answer: 2613 ± 418 ng/mL

Question: What about the POTENCY (growth hormone release; relative to GRF(1-29)NH2 (=1) as standard, by 4point assay (95% CI limits in parentheses)) of the same molecule?
Answer: 0.42

Question: For “GRF(1-40)-OH (YADAIFTNSYRKVLGQLSARKLLQDIMSRQQGESNQERGA-OH; UniProt P01286 32-71, looked up, fragment) [unalkylated human GRF(1-40) free acid, comparator in the sheep test, reference compound]”, which “Plasma GH Peak” value (plasma growth hormone) is on record?
Answer: 92.3 ng/mL

Question: What about the “Plasma GH Post-inj Mean” value (plasma growth hormone) of the same molecule?
Answer: 25.5 ng/mL

Question: What about the “Plasma GH Pre-inj Mean” value (plasma growth hormone) of the same molecule?
Answer: 9.4 ng/mL

Question: Which results are given for “[N ^α -Isopropyl-Tyr^1, N ^ε -isopropyl-Lys^12,21 ]GRF(1-40)OH [tri-isopropyl-GRF(1-40)-OH]”?
Answer: Plasma GH Peak (plasma growth hormone): 108.6 ng/mL; Plasma GH Post-inj Mean (plasma growth hormone): 34.0 ng/mL; Plasma GH Pre-inj Mean (plasma growth hormone): 9.5 ng/mL

Question: Which results are given for “[N^α -Isopropyl-Tyr^1 ]GRF(1-29)NH2 [N^α iPrTyr^1]”?
Answer: PLASMA GH (growth hormone release; dose 0.2 ug/100 g BW SC, 15 min, saline control 325 ± 52): 1334 ± 394 ng/mL; PLASMA GH (growth hormone release; dose 2 ug/100 g BW SC, 15 min, saline control 325 ± 52): 3250 ± 362 ng/mL; PLASMA GH (growth hormone release; dose 20 ug/100 g BW SC, 15 min, saline control 325 ± 52): 3290 ± 241 ng/mL; POTENCY (growth hormone release; relative to GRF(1-29)NH2 (=1), estimated by single dose comparisons to pooled standard responses): ~ 60
